{"source": "paper PMC5218480", "about": "(PLoS ONE, 2017)", "tested_on": "MV-4-11 cells", "experiment": "Gene expression microarray analysis (Affymetrix PrimeView) and GSEA", "format": "cell-based, human", "set-up": "RFU PODN (11730768_x_at) / Fold change /veh PODN (11730768_x_at) / RFU LINC00158 (11744669_a_at) / Fold change /veh LINC00158 (11744669_a_at) / RFU DUSP10 (11751237_a_at) / Fold change /veh DUSP10 (11751237_a_at) / RFU ID3 (11757404_x_at) / Fold change /veh ID3 (11757404_x_at) / RFU PLEKHG5 (11737974_s_at) / Fold change /veh PLEKHG5 (11737974_s_at) / RFU LRRC4B (11730491_at) / Fold change /veh LRRC4B (11730491_at) / RFU GIMAP4 (11747438_a_at) / Fold change /veh GIMAP4 (11747438_a_at) / RFU KRT8 (11758183_x_at) / Fold change /veh KRT8 (11758183_x_at) / RFU CNN1 (11734310_a_at) / Fold change /veh CNN1 (11734310_a_at) / RFU VPS37D (11726825_at) / Fold change /veh VPS37D (11726825_at) / RFU C10orf10 (11716522_x_at) / Fold change /veh C10orf10 (11716522_x_at) / RFU KIR2DL2 /// KIR2DL4 /// KIR2DL5A /// KIR2DL5B /// KIR2DS1 /// KIR2DS2 /// KIR2DS3 /// KIR2DS4 /// KIR3DL3 /// KIR3DL3 /// KIR3DS1 (11738374_at) / Fold change /veh KIR2DL2 /// KIR2DL4 /// KIR2DL5A /// KIR2DL5B /// KIR2DS1 /// KIR2DS2 /// KIR2DS3 /// KIR2DS4 /// KIR3DL3 /// KIR3DL3 /// KIR3DS1 (11738374_at) / RFU C1QL1 (11718748_at) / Fold change /veh C1QL1 (11718748_at) / RFU TMPRSS4 (11747572_a_at) / Fold change /veh TMPRSS4 (11747572_a_at) / RFU HAMP (11756126_x_at) / Fold change /veh HAMP (11756126_x_at) / RFU RNFT2 (11725882_a_at) / Fold change /veh RNFT2 (11725882_a_at) / RFU NR4A2 (11747474_a_at) / Fold change /veh NR4A2 (11747474_a_at) / RFU ABCC12 (11746883_a_at) / Fold change /veh ABCC12 (11746883_a_at) / RFU TMEM136 (11760407_x_at) / Fold change /veh TMEM136 (11760407_x_at) / RFU CLDN22 /// WWC2 (11732394_at) / Fold change /veh CLDN22 /// WWC2 (11732394_at) / RFU HLA-DPB1 (11760878_x_at) / Fold change /veh HLA-DPB1 (11760878_x_at) / RFU SPINT1 (11716480_a_at) / Fold change /veh SPINT1 (11716480_a_at) / RFU GAP43 (11754022_s_at) / Fold change /veh GAP43 (11754022_s_at) / RFU A4GNT (11735810_at) / Fold change /veh A4GNT (11735810_at) / RFU PRB3 (11715151_x_at) / Fold change /veh PRB3 (11715151_x_at) / RFU TUBB4B (11761932_at) / Fold change /veh TUBB4B (11761932_at) / RFU CAPN14 (11732068_a_at) / Fold change /veh CAPN14 (11732068_a_at) / RFU TMCC2 (11721928_a_at) / Fold change /veh TMCC2 (11721928_a_at) / RFU IRGQ (11745062_a_at) / Fold change /veh IRGQ (11745062_a_at) / RFU FAM174B (11720279_a_at) / Fold change /veh FAM174B (11720279_a_at) / RFU TMPRSS4 (11748680_a_at) / Fold change /veh TMPRSS4 (11748680_a_at) / RFU FAM212B (11763350_a_at) / Fold change /veh FAM212B (11763350_a_at) / RFU PLEKHG5 (11743358_a_at) / Fold change /veh PLEKHG5 (11743358_a_at) / RFU ZSCAN30 (11745921_a_at) / Fold change /veh ZSCAN30 (11745921_a_at) / RFU CMKLR1 (11741424_a_at) / Fold change /veh CMKLR1 (11741424_a_at) / RFU LOC101060620 /// MAPK8IP1 (11723275_at) / Fold change /veh LOC101060620 /// MAPK8IP1 (11723275_at) / RFU SPTSSB (11747773_x_at) / Fold change /veh SPTSSB (11747773_x_at) / RFU PRSS12 (11739890_at) / Fold change /veh PRSS12 (11739890_at) / RFU BIN1 (11741810_x_at) / Fold change /veh BIN1 (11741810_x_at) / RFU WNT11 (11732464_a_at) / Fold change /veh WNT11 (11732464_a_at) / RFU C10orf10 (11716521_a_at) / Fold change /veh C10orf10 (11716521_a_at) / RFU C5orf56 (11738089_at) / Fold change /veh C5orf56 (11738089_at) / RFU CYB561 (11721691_x_at) / Fold change /veh CYB561 (11721691_x_at) / RFU ANKRD19P (11752326_a_at) / Fold change /veh ANKRD19P (11752326_a_at) / RFU OR2T12 /// OR2T33 /// OR2T8 (11738714_s_at) / Fold change /veh OR2T12 /// OR2T33 /// OR2T8 (11738714_s_at) / RFU VCAN (11748164_a_at) / Fold change /veh VCAN (11748164_a_at) / RFU JSRP1 (11732532_at) / Fold change /veh JSRP1 (11732532_at) / RFU KRTAP10-11 (11738290_x_at) / Fold change /veh KRTAP10-11 (11738290_x_at) / RFU MYO3A (11730013_a_at) / Fold change /veh MYO3A (11730013_a_at) / RFU EBF3 (11725865_a_at) / Fold change /veh EBF3 (11725865_a_at) / RFU CAMK2N1 (11719241_x_at) / Fold change /veh CAMK2N1 (11719241_x_at) / RFU C5orf56 (11738088_a_at) / Fold change /veh C5orf56 (11738088_a_at) / RFU OLFML3 (11715873_a_at) / Fold change /veh OLFML3 (11715873_a_at) / RFU LOC100653217 /// NTM (11731650_a_at) / Fold change /veh LOC100653217 /// NTM (11731650_a_at) / RFU MAPK11 (11762145_a_at) / Fold change /veh MAPK11 (11762145_a_at) / RFU FIZ1 (11724087_x_at) / Fold change /veh FIZ1 (11724087_x_at) / RFU OASL (11726364_x_at) / Fold change /veh OASL (11726364_x_at) / RFU SOX15 (11748057_x_at) / Fold change /veh SOX15 (11748057_x_at) / RFU CD79A (11719716_a_at) / Fold change /veh CD79A (11719716_a_at) / RFU HIST1H1D (11736915_at) / Fold change /veh HIST1H1D (11736915_at) / RFU CASKIN2 (11723855_a_at) / Fold change /veh CASKIN2 (11723855_a_at) / RFU LOC730098 (11760151_x_at) / Fold change /veh LOC730098 (11760151_x_at) / RFU OR4N2 (11742367_at) / Fold change /veh OR4N2 (11742367_at) / RFU PRRT2 (11749266_a_at) / Fold change /veh PRRT2 (11749266_a_at) / RFU SNX32 (11753110_a_at) / Fold change /veh SNX32 (11753110_a_at) / RFU CDHR5 (11726645_a_at) / Fold change /veh CDHR5 (11726645_a_at) / RFU RCAN1 (11760418_a_at) / Fold change /veh RCAN1 (11760418_a_at) / RFU FAM167A (11723789_a_at) / Fold change /veh FAM167A (11723789_a_at) / RFU FAM26E (11764081_at) / Fold change /veh FAM26E (11764081_at) / RFU ISYNA1 (11749810_s_at) / Fold change /veh ISYNA1 (11749810_s_at) / RFU ACY1 (11761880_at) / Fold change /veh ACY1 (11761880_at) / RFU 11764098_at / Fold change /veh 11764098_at / RFU SAMD14 (11745864_x_at) / Fold change /veh SAMD14 (11745864_x_at) / RFU NPB (11741838_a_at) / Fold change /veh NPB (11741838_a_at) / RFU TMPRSS6 (11731388_a_at) / Fold change /veh TMPRSS6 (11731388_a_at) / RFU KRTAP10-2 (11738614_at) / Fold change /veh KRTAP10-2 (11738614_at) / RFU ARHGAP8 /// PRR5-ARHGAP8 (11727945_x_at) / Fold change /veh ARHGAP8 /// PRR5-ARHGAP8 (11727945_x_at) / RFU KRTAP5-7 /// NADSYN1 (11734609_at) / Fold change /veh KRTAP5-7 /// NADSYN1 (11734609_at) / RFU RASL12 (11751679_a_at) / Fold change /veh RASL12 (11751679_a_at) / RFU CDKN2B (11736163_a_at) / Fold change /veh CDKN2B (11736163_a_at) / RFU PRF1 (11729649_at) / Fold change /veh PRF1 (11729649_at) / RFU, ZNF638 /// ZNF638-IT1 / Fold change vs veh, ZNF638 /// ZNF638-IT1 / RFU, PANK3 / Fold change vs veh, PANK3 / RFU, SH3YL1 / Fold change vs veh, SH3YL1 / RFU, ZEB2 / Fold change vs veh, ZEB2 / RFU, NRIP1 / Fold change vs veh, NRIP1 / RFU, PTTG1IP / Fold change vs veh, PTTG1IP / RFU, CAPN2 / Fold change vs veh, CAPN2 / RFU, MED14 / Fold change vs veh, MED14 / RFU, SNORA58 / Fold change vs veh, SNORA58 / RFU, C1orf63 / Fold change vs veh, C1orf63 / RFU, LRRFIP1 / Fold change vs veh, LRRFIP1 / RFU, NDUFAF7 / Fold change vs veh, NDUFAF7 / RFU, SLC12A2 / Fold change vs veh, SLC12A2 / RFU, IBTK / Fold change vs veh, IBTK / RFU, ESF1 / Fold change vs veh, ESF1 / Fold change vs veh, TMEM50B / RFU, TAOK1 / Fold change vs veh, TAOK1 / RFU, ACBD3 / Fold change vs veh, ACBD3 / RFU, TMA16 / Fold change vs veh, TMA16 / RFU, RWDD3 / Fold change vs veh, RWDD3 / RFU, BCAT1 / Fold change vs veh, BCAT1 / RFU, EDEM3 / Fold change vs veh, EDEM3 / RFU, TMEM33 / Fold change vs veh, TMEM33 / RFU, WDR75 / Fold change vs veh, WDR75 / RFU, AHCTF1 / Fold change vs veh, AHCTF1 / RFU, TFRC / Fold change vs veh, TFRC / RFU, ZDHHC17 / Fold change vs veh, ZDHHC17 / RFU, NOM1 / Fold change vs veh, NOM1 / RFU, ARL8B / Fold change vs veh, ARL8B / RFU, ZBTB11 / Fold change vs veh, ZBTB11 / RFU, TAMM41 / Fold change vs veh, TAMM41 / RFU, KIAA1704 /// LOC100996395 / Fold change vs veh, KIAA1704 /// LOC100996395 / RFU, ING1 / Fold change vs veh, ING1 / RFU, TRMT61B / Fold change vs veh, TRMT61B / RFU, FUBP3 / Fold change vs veh, FUBP3 / RFU, TP53 / Fold change vs veh, TP53 / RFU, TNKS2 / Fold change vs veh, TNKS2 / RFU, ZFP14 / Fold change vs veh, ZFP14 / RFU, ACTR2 / Fold change vs veh, ACTR2 / RFU, PPP3R1 / Fold change vs veh, PPP3R1 / RFU, PIK3R1 / Fold change vs veh, PIK3R1 / RFU, HNRNPA1 / Fold change vs veh, HNRNPA1 / RFU, RNF170 / Fold change vs veh, RNF170 / RFU, ZNF28 / Fold change vs veh, ZNF28 / RFU, RNGTT / Fold change vs veh, RNGTT / RFU, OGT / Fold change vs veh, OGT / RFU, BRD1 / Fold change vs veh, BRD1 / RFU, MARS / Fold change vs veh, MARS / RFU, ZNF655 / Fold change vs veh, ZNF655 / RFU, FAHD1 / Fold change vs veh, FAHD1 / RFU, BDP1 / Fold change vs veh, BDP1 / RFU, LRRCC1 / Fold change vs veh, LRRCC1 / RFU, ARID1A / Fold change vs veh, ARID1A / RFU, ZNF146 / Fold change vs veh, ZNF146 / RFU, ZNF330 / Fold change vs veh, ZNF330 / RFU, GPN3 / Fold change vs veh, GPN3 / RFU, C9orf123 / Fold change vs veh, C9orf123 / RFU, N4BP2L2 / Fold change vs veh, N4BP2L2 / RFU, ARFIP1 / Fold change vs veh, ARFIP1 / RFU, FAM179B / Fold change vs veh, FAM179B / RFU, BCL10 / Fold change vs veh, BCL10 / RFU, UHRF1BP1L / Fold change vs veh, UHRF1BP1L / RFU, BET1 / Fold change vs veh, BET1 / RFU, CNOT2 / Fold change vs veh, CNOT2 / RFU, ZNF268 / Fold change vs veh, ZNF268 / Fold change vs veh, ZNF507 / RFU, DGCR2 / Fold change vs veh, DGCR2 / RFU, WDSUB1 / Fold change vs veh, WDSUB1 / Fold change vs veh, HSP90B1 /// MIR3652 / RFU, ADSS / Fold change vs veh, ADSS / RFU, GK / Fold change vs veh, GK / RFU, ZNF148 / Fold change vs veh, ZNF148 / RFU, TAF9 / Fold change vs veh, TAF9 / RFU, SLC1A5 / Fold change vs veh, SLC1A5 / RFU, SLMO2 / Fold change vs veh, SLMO2 / RFU, ABCC4 / Fold change vs veh, ABCC4 / RFU, LOC101060439 /// RAP1B / Fold change vs veh, LOC101060439 /// RAP1B / RFU, RFX7 / Fold change vs veh, RFX7 / RFU, GTPBP10 / Fold change vs veh, GTPBP10 / RFU, CNEP1R1 / Fold change vs veh, CNEP1R1 / RFU, BIVM-ERCC5 /// ERCC5 / Fold change vs veh, BIVM-ERCC5 /// ERCC5 / RFU, ILF3 / Fold change vs veh, ILF3 / RFU 11762660_at / Fold change /veh 11762660_at / RFU VCAN (11757783_s_at) / Fold change /veh VCAN (11757783_s_at) / RFU DDX43 (11728927_at) / Fold change /veh DDX43 (11728927_at) / RFU KRT8 (11758188_x_at) / Fold change /veh KRT8 (11758188_x_at) / RFU NKD1 (11759106_at) / Fold change /veh NKD1 (11759106_at) / RFU SRD5A1 (11742802_a_at) / Fold change /veh SRD5A1 (11742802_a_at) / RFU TPSAB1 /// TPSB2 (11721975_s_at) / Fold change /veh TPSAB1 /// TPSB2 (11721975_s_at) / RFU GSTM3 (11746129_a_at) / Fold change /veh GSTM3 (11746129_a_at) / RFU IL23R (11737362_x_at) / Fold change /veh IL23R (11737362_x_at) / RFU TMEM51 (11727254_a_at) / Fold change /veh TMEM51 (11727254_a_at) / RFU PIWIL2 (11732686_x_at) / Fold change /veh PIWIL2 (11732686_x_at) / RFU ORM1 (11744905_x_at) / Fold change /veh ORM1 (11744905_x_at) / RFU CCDC152 (11743942_at) / Fold change /veh CCDC152 (11743942_at) / RFU ECM1 (11717891_a_at) / Fold change /veh ECM1 (11717891_a_at) / RFU IL23R (11748794_a_at) / Fold change /veh IL23R (11748794_a_at) / RFU TNFAIP8L3 (11732012_x_at) / Fold change /veh TNFAIP8L3 (11732012_x_at) / RFU MBOAT4 (11741988_at) / Fold change /veh MBOAT4 (11741988_at) / RFU 11764193_at / Fold change /veh 11764193_at / RFU TMEM53 (11763286_at) / Fold change /veh TMEM53 (11763286_at) / RFU MAGEB2 (11727129_at) / Fold change /veh MAGEB2 (11727129_at) / RFU TMEM200A (11744735_a_at) / Fold change /veh TMEM200A (11744735_a_at) / RFU CCDC152 (11751479_a_at) / Fold change /veh CCDC152 (11751479_a_at) / RFU FAM211A (11726209_a_at) / Fold change /veh FAM211A (11726209_a_at) / RFU RGS16 (11746705_a_at) / Fold change /veh RGS16 (11746705_a_at) / RFU VCAN (11755009_s_at) / Fold change /veh VCAN (11755009_s_at) / RFU RHOB (11743442_s_at) / Fold change /veh RHOB (11743442_s_at) / RFU RGS16 (11720943_a_at) / Fold change /veh RGS16 (11720943_a_at) / RFU RGS16 (11720944_at) / Fold change /veh RGS16 (11720944_at) / RFU, VPS4B / Fold change vs veh, VPS4B / RFU, CREB1 / Fold change vs veh, CREB1 / RFU, DNAJC13 / Fold change vs veh, DNAJC13 / RFU, GNAQ / Fold change vs veh, GNAQ / RFU, CDK5R1 / Fold change vs veh, CDK5R1 / RFU, ZRANB3 / Fold change vs veh, ZRANB3 / RFU, CUL4A / Fold change vs veh, CUL4A / RFU, CCNY / Fold change vs veh, CCNY / RFU, UFL1 / Fold change vs veh, UFL1 / RFU, COG3 / Fold change vs veh, COG3 / RFU, DIAPH2 / Fold change vs veh, DIAPH2 / RFU, SKA2 / Fold change vs veh, SKA2 / RFU, AFF3 / Fold change vs veh, AFF3 / RFU, LMF1 / Fold change vs veh, LMF1 / RFU, IPO11 / Fold change vs veh, IPO11 / RFU, DFFB / Fold change vs veh, DFFB / RFU, FOXP1 / Fold change vs veh, FOXP1 / RFU, CARD8 / Fold change vs veh, CARD8 / RFU, STRN3 / Fold change vs veh, STRN3 / RFU, ADK / Fold change vs veh, ADK / RFU, RASSF2 / Fold change vs veh, RASSF2 / RFU, WIPF1 / Fold change vs veh, WIPF1 / RFU, LARP1B / Fold change vs veh, LARP1B / RFU, RASA1 / Fold change vs veh, RASA1 / RFU, RB1 / Fold change vs veh, RB1 / RFU, PPFIA1 / Fold change vs veh, PPFIA1 / RFU, MAT2A / Fold change vs veh, MAT2A / RFU, CCT5 / Fold change vs veh, CCT5 / RFU, WDR92 / Fold change vs veh, WDR92 / RFU, CUX1 / Fold change vs veh, CUX1 / RFU, TTC7A / Fold change vs veh, TTC7A / RFU, TMEM135 / Fold change vs veh, TMEM135 / RFU, DEPTOR / Fold change vs veh, DEPTOR / RFU, CPM / Fold change vs veh, CPM / RFU, DNAJB6 / Fold change vs veh, DNAJB6 / RFU, CACNA2D3 / Fold change vs veh, CACNA2D3 / RFU, DTX4 / Fold change vs veh, DTX4 / RFU, TFCP2 / Fold change vs veh, TFCP2 / RFU, GMCL1 /// GMCL1P1 / Fold change vs veh, GMCL1 /// GMCL1P1 / RFU, AEBP2 / Fold change vs veh, AEBP2 / RFU, SNHG1 /// SNORD22 /// SNORD25 /// SNORD26 /// SNORD27 /// SNORD28 /// SNORD29 /// SNORD31 / Fold change vs veh, SNHG1 /// SNORD22 /// SNORD25 /// SNORD26 /// SNORD27 /// SNORD28 /// SNORD29 /// SNORD31 / Fold change (Aza/veh), C12orf56 (ProbeSet 11735607_a_at) / Fold change (ACY-1035/veh), C12orf56 (ProbeSet 11735607_a_at) / Fold change (Aza/veh), FGFR1OP (ProbeSet 11751329_s_at) / Fold change (ACY-1035/veh), FGFR1OP (ProbeSet 11751329_s_at) / Fold change (Aza/veh), VPS36 (ProbeSet 11739960_a_at) / Fold change (ACY-1035/veh), VPS36 (ProbeSet 11739960_a_at) / RFU SYPL1 (11715823_x_at) / Fold change /veh SYPL1 (11715823_x_at) / RFU IGFBP7 (11715501_s_at) / Fold change /veh IGFBP7 (11715501_s_at) / RFU REEP3 (11722064_at) / Fold change /veh REEP3 (11722064_at) / RFU IGLL1 (11728026_x_at) / Fold change /veh IGLL1 (11728026_x_at): dose or concentration left out as unconfirmed", "settings": "MV-4-11 cells, 48 hours"}
{"smiles": "Nc1ccc(-c2cccs2)cc1NC(=O)c1ccc2c(c1)cc(C1CC1)n2CCN1CCOCC1", "note": "[ACY-1035]", "values": [{"measurement": "RFU PODN (11730768_x_at)", "result": 25.60, "unit": "RFU"}]}
